The target of the experiment is Estrogen receptor (Rattus norvegicus) (UniProt P06211+Q62986). Nature of the experiment: Relative binding affinity for rat uterine estrogen receptor at 25 degree C. In kind it is protein assay.

On to `C[C@]12CC[C@@H]3c4ccc(O)cc4CC[C@H]3[C@@H]1C[C@@H](F)[C@@H]2O`, for which the RBA was found to be 60.

Source of the values: ChEMBL document CHEMBL1125026, “Synthesis and estrogen receptor binding of novel 11 beta-substituted estra-1,3,5(10)-triene-3,17 beta-diols” (J Med Chem, 1990).
